Data taken from patent publication US11040036B2, “Pyruvate kinase activators for use in treating blood disorders” (Agios Pharmaceuticals, Inc., priority 2017, dated 2021).

Columns and labels:
[1] = target: PKR R510Q (Homo sapiens, UniProt P30613, R510Q); test: PKR mutant assay (AC50), PKR R510Q; type: biochemical; settings: PKR R510Q mutant enzyme; for AC50: read-out: PK R510Q AC50
Method: (§1) Example 11. PKR Mutant Assay
(§2) PKR or PKR mutant enzyme solution was diluted into a reaction mix, which contains 1× buffer (100 mM KCl, 50 mM Tris pH 7.5, 5 mM MgCl2) as well as PEP (cont depends on enzyme), 180 μM NADH, 0.5 units LDH, 1 mM DTT, 0.03% BSA; final assay concentrations after 1.11 fold dilution are indicated.
(§3) 2 μL of test compound was added into wells first, and then 180 μL reaction mix was added.
(§4) Reactions mixture with test compound was assembled except for ADP, and plates were stored for 60 minutes at room temperature.
(§5) 20 uL ADP was added to start reaction at room temperature and reaction progress was measured as changes in absorbance at 340 nm wavelength at room temperature.
(§6) Test Compound Preparation:
(§7) Test compound stock was made at 100× concentration in 100% DMSO (10 mM)
(§8) 1 to 3 dilutions were made for 11 points (i.e. 50 μl of first concentration added to 100 μl 100% DMSO to yield 3.33 mM, 50 μl of this added to 100 μl DMSO to yield 1.11 mM, and so forth) • 1 to 100 dilution into assay (2 μl in 200 μl) yielded starting concentration of 100 μM, decreasing 3 fold for 11 points.
(§9) Assay Buffer: 100 mM KCl, 50 mM Tris 7.5, 5 mM MgCl2, 1 ruM DTT, 0.03% BSA
(§10) Reaction Mixture: PKR mutant enzyme: 40-400 ng/well; ADP: 0.2-1.65 mM; PEP: 0.1-0.5 mM; NADH:180 μM; LDH: 0.5 units (Sigma #59023); DTT: 1 mM; BSA: 0.03%.

[2] = target: PKR K410E (Homo sapiens, UniProt P30613, K410E); test: PKR mutant assay (AC50), PKR K410E; type: biochemical; settings: PKR K410E mutant enzyme
PKR K410E, sequence (P30613 whole entry K410E): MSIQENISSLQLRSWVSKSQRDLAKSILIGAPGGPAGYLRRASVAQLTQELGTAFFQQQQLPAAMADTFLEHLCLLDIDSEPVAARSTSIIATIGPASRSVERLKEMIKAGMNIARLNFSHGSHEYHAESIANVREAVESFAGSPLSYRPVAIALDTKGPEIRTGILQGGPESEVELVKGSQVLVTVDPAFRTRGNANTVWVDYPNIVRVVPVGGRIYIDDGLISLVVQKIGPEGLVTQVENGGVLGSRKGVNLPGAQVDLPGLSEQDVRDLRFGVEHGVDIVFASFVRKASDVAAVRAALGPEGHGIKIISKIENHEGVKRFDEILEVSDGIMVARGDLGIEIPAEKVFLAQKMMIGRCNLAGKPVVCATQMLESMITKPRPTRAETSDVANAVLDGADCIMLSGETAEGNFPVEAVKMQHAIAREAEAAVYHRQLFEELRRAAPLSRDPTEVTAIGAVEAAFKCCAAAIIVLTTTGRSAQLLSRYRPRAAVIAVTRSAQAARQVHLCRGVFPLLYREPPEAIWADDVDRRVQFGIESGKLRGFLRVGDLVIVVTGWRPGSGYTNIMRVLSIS
Method: as §1, §2, §3, §4, §5, §6, §7, §8, §9, §10

[3] = target: T1, wild type PKR (Homo sapiens, UniProt P30613); test: Cell based ATP assay in purified red blood cells; parameters: endogenous in cells; host or cells: purified red blood cells from blood of healthy volunteers; settings: RBCs, overnight at 37° C., ATP levels by Cell-Titer-Glo
T1 sequence (P30613 whole entry): as the sequence (P30613 whole entry K410E) above, with E410K counted along it
Method: Example 16. Red Blood Cell (RBC) Purification
Fresh blood drawn from healthy volunteers into K2EDTA tubes was collected. Whole blood was pelleted by spinning at 500 g for 10 minutes. Cut transfusion bag port off of Purecell leukocyte reduction neofilter (Fisher NCO267633) one (1) inch above filter. Attach a 10 ml syringe barrel to the remaining cut tubing attached to neofilter. The plasma layer was removed from the pellet of the whole blood and the pellet was resuspended in 2× volume of phosphate buffered saline (PBS). Transfer 9 ml re-suspended blood cell pellet to prepared 10 ml syringe that is attached to the neofilter. Allow whole blood to gravity flow through filter until all fluid runs through upper tubing into filter disc. Add plunger to the syringe, remove syringe from clamp and invert the filter, then plunge air through the syringe filter system. Using a new 5 ml syringe, remove filtered RBCs from the bag by the syringe port and transfer purified RBCs to a 5 ml snap cap tube that has been incubated on ice. Spin 5 ml snap cap tube at 500 g for 10 minutes at 15 C, aspirate supernatant and resuspend in AGAM (1×PBS, 1% glucose, 170 mg/L adenine, 5.25 g/L mannitol) at a density of 4×10^9 cells/mL.
Example 17. Cell Based ATP Assay
For cell based ATP assays, the compound as described herein was prepared in 100% DMSO as a 10 mM stock. Serial dilutions (1:4) were performed in 96-well V-bottom storage plate and then added 1:100 to 96-well V-bottom plates containing AGAM. RBCs were diluted in AGAM media to a density of 1×10^7 cells/mL before added 90 μL/well to black clear bottom assay plates (final compound concentration at 0.1% DMSO concentration). Assay plates were sealed using aluminum foil seals and incubated overnight at 37° C. in a humidified chamber. ATP levels were read out using Cell-Titer-Glo (Promega).

[4] = target: T1, wild type PKR; test: PKR mutant assay (AC50), wild type PKR; type: biochemical; settings: wild type PKR enzyme; for AC50: read-out: PKR WT AC50
Method: as §1, §2, §3, §4, §5, §6, §7, §8, §9, §10

PKR R510Q, sequence (P30613 whole entry R510Q): as the sequence (P30613 whole entry K410E) above, with E410K, R510Q counted along it

## COc1cn(C)nc1Cn1ncc2c3sc(Cc4cc[nH]n4)nc3n(C)c2c1=O
[1]
  AC50: < 300 nM
[2]
  AC50: < 300 nM
[3]
  AC50: ≤ 1000 nM
[4]
  AC50: < 300 nM

## Cn1c2nc(Cn3cncn3)sc2c2cnn(Cc3n[nH]c(=O)[nH]3)c(=O)c21
[1]
  PK R510Q AC50: No Fit
[2]
  PKR K410E AC50: No Fit
[3]
  Cell based ATP assay AC50: No Fit
[4]
  PKR WT AC50: No Fit

## Cn1ccc(Cc2nc3c(s2)c2cnn(Cc4ccn[nH]4)c(=O)c2n3C)n1
[1]
  AC50: < 300 nM
[2]
  AC50: < 300 nM
[3]
  AC50: ≤ 1000 nM
[4]
  AC50: < 300 nM

## Cn1c2nc(Cc3cc[nH]n3)sc2c2cnn(Cc3nc[nH]n3)c(=O)c21
[1]
  AC50: < 300 nM
[2]
  AC50: < 300 nM
[3]
  AC50: ≤ 1000 nM
[4]
  AC50: < 300 nM

## Cn1c2nc(Cc3cccc(N)n3)sc2c2cnn(Cc3cc[nH]n3)c(=O)c21
[1]
  AC50: < 300 nM
[2]
  AC50: < 300 nM
[3]
  AC50: ≤ 1000 nM
[4]
  AC50: < 300 nM

## Cn1c2nc(Cc3c[nH]cn3)sc2c2cnn(Cc3ncsc3C(F)(F)F)c(=O)c21
[1]
  AC50: > 800 nM
[2]
  AC50: > 800 nM
[3]
  AC50: > 1000 nM
[4]
  AC50: > 800 nM

## Cn1c2nc(Cn3ccnc3)sc2c2cnn(Cc3cc[nH]n3)c(=O)c21
[1]
  AC50: 301 to 800 nM
[2]
  AC50: < 300 nM
[3]
  AC50: ≤ 1000 nM
[4]
  AC50: < 300 nM

## Cn1c2nc(Cc3c[nH]nn3)sc2c2cnn(Cc3c[nH]nn3)c(=O)c21
[1]
  AC50: < 300 nM
[2]
  AC50: < 300 nM
[3]
  AC50: ≤ 1000 nM
[4]
  AC50: < 300 nM

## Cn1c2nc(Cc3n[nH]cc3F)sc2c2cnn(Cc3n[nH]cc3Cl)c(=O)c21
[1]
  AC50: < 300 nM
[2]
  AC50: < 300 nM
[3]
  AC50: ≤ 1000 nM
[4]
  AC50: < 300 nM

## Cn1c2nc(Cc3nc(N)ccc3F)sc2c2cnn(Cc3cc[nH]n3)c(=O)c21
[1]
  AC50: < 300 nM
[2]
  AC50: < 300 nM
[3]
  AC50: ≤ 1000 nM
[4]
  AC50: < 300 nM

## Cn1c2nc(Cc3cc[nH]n3)sc2c2cnn(Cc3nc[nH]c3N)c(=O)c21
[1]
  AC50: 301 to 800 nM
[2]
  AC50: 301 to 800 nM
[3]
  AC50: > 1000 nM
[4]
  AC50: 301 to 800 nM

## Cn1c2nc(Cc3c[nH]nn3)sc2c2cnn(Cc3nccs3)c(=O)c21
[1]
  AC50: < 300 nM
[2]
  AC50: < 300 nM
[3]
  AC50: ≤ 1000 nM
[4]
  AC50: 301 to 800 nM

## Cn1c2nc(Cc3cc[nH]n3)sc2c2cnn(Cc3n[nH]cc3C#N)c(=O)c21
[1]
  AC50: < 300 nM
[2]
  AC50: < 300 nM
[3]
  AC50: ≤ 1000 nM
[4]
  AC50: < 300 nM

## Cn1c2nc(Cc3ncsc3Br)sc2c2cnn(Cc3cc[nH]n3)c(=O)c21
[1]
  AC50: < 300 nM
[2]
  AC50: < 300 nM
[3]
  AC50: ≤ 1000 nM
[4]
  AC50: < 300 nM

## Cn1c2nc(Cc3cc[nH]n3)sc2c2cnn(Cc3cc(F)cc(N)n3)c(=O)c21
[1]
  AC50: < 300 nM
[2]
  AC50: < 300 nM
[3]
  AC50: ≤ 1000 nM
[4]
  AC50: < 300 nM

## Cn1c2nc(Cc3nc(N)sc3F)sc2c2cnn(Cc3cc[nH]n3)c(=O)c21
[1]
  AC50: < 300 nM
[2]
  AC50: < 300 nM
[3]
  AC50: ≤ 1000 nM
[4]
  AC50: < 300 nM

## Cn1c2nc(Cn3cc[nH]c3=O)sc2c2cnn(Cc3cc[nH]n3)c(=O)c21
[1]
  AC50: < 300 nM
[2]
  AC50: < 300 nM
[3]
  AC50: ≤ 1000 nM
[4]
  AC50: < 300 nM

## Cn1c2nc(Cc3ncsc3F)sc2c2cnn(Cc3c[nH]nn3)c(=O)c21
[1]
  AC50: < 300 nM
[2]
  AC50: < 300 nM
[3]
  AC50: ≤ 1000 nM
[4]
  AC50: < 300 nM

## Cn1c2nc(Cc3n[nH]cc3F)sc2c2cnn(Cc3cscn3)c(=O)c21
[1]
  AC50: < 300 nM
[2]
  AC50: < 300 nM
[3]
  AC50: ≤ 1000 nM
[4]
  AC50: < 300 nM

## Cn1c2nc(Cc3csc(CO)n3)sc2c2cnn(Cc3cc[nH]n3)c(=O)c21
[1]
  AC50: < 300 nM
[2]
  AC50: < 300 nM
[3]
  AC50: ≤ 1000 nM
[4]
  AC50: < 300 nM

## COc1cc(Cn2ncc3c4sc(Cc5cc[nH]n5)nc4n(C)c3c2=O)ccn1
[1]
  AC50: < 300 nM
[2]
  AC50: < 300 nM
[3]
  AC50: ≤ 1000 nM
[4]
  AC50: < 300 nM

## Cn1c2nc(Cc3cc[nH]n3)sc2c2cnn(Cc3ncsc3Br)c(=O)c21
[1]
  AC50: < 300 nM
[2]
  AC50: < 300 nM
[3]
  AC50: ≤ 1000 nM
[4]
  AC50: < 300 nM

## CNc1ccc(F)c(Cn2ncc3c4sc(Cc5cc[nH]n5)nc4n(C)c3c2=O)n1
[1]
  AC50: < 300 nM
[2]
  AC50: < 300 nM
[3]
  AC50: ≤ 1000 nM
[4]
  AC50: < 300 nM

## Cn1ncc(Cn2ncc3c4sc(Cc5cc[nH]n5)nc4n(C)c3c2=O)n1
[1]
  AC50: < 300 nM
[2]
  AC50: < 300 nM
[3]
  AC50: ≤ 1000 nM
[4]
  AC50: < 300 nM

## CC(c1cc[nH]n1)c1nc2c(s1)c1cnn(Cc3cc[nH]n3)c(=O)c1n2C (centres unmarked)
[1]
  AC50: < 300 nM
[2]
  AC50: < 300 nM
[3]
  AC50: ≤ 1000 nM
[4]
  AC50: < 300 nM

## Cn1c2nc(Cc3cc[nH]n3)sc2c2cnn(Cc3nc(C#N)cs3)c(=O)c21
[1]
  AC50: < 300 nM
[2]
  AC50: < 300 nM
[3]
  AC50: ≤ 1000 nM
[4]
  AC50: < 300 nM

## Cc1cn(C)nc1Cn1ncc2c3sc(Cc4cc[nH]n4)nc3n(C)c2c1=O
[1]
  AC50: < 300 nM
[2]
  AC50: < 300 nM
[3]
  AC50: ≤ 1000 nM
[4]
  AC50: < 300 nM

## Cn1cc(CO)c(Cn2ncc3c4sc(Cc5cc[nH]n5)nc4n(C)c3c2=O)n1
[1]
  AC50: < 300 nM
[2]
  AC50: < 300 nM
[3]
  AC50: ≤ 1000 nM
[4]
  AC50: < 300 nM

## Cn1c2nc(Cc3cc[nH]n3)sc2c2cnn(Cc3n[nH]cc3C(N)=O)c(=O)c21
[1]
  AC50: < 300 nM
[2]
  AC50: < 300 nM
[3]
  AC50: ≤ 1000 nM
[4]
  AC50: < 300 nM

## Cn1c2nc(Cc3cscn3)sc2c2cnn(Cc3c[nH]nn3)c(=O)c21
[1]
  AC50: < 300 nM
[2]
  AC50: < 300 nM
[3]
  AC50: ≤ 1000 nM
[4]
  AC50: < 300 nM

## Cn1c2nc(Cc3cc[nH]n3)sc2c2cnn(Cc3coc(C(N)=O)n3)c(=O)c21
[1]
  AC50: > 800 nM
[2]
  AC50: > 800 nM
[3]
  AC50: ≤ 1000 nM
[4]
  AC50: > 800 nM

## Cn1c2nc(Cc3ccccn3)sc2c2cnn(Cc3n[nH]cc3Cl)c(=O)c21
[1]
  AC50: < 300 nM
[2]
  AC50: < 300 nM
[3]
  AC50: ≤ 1000 nM
[4]
  AC50: < 300 nM
